This note sets out measurements from patent publication US20170281700A1, “PHAGE THERAPY FOR TARGETING ENTEROCOCCI” (priority 2014, published 2017).

For this assay, the system named is E. faecalis V583 VRE. The assay is classed as cell-based, Enterococcus faecalis. An excerpt: The insert depicts the clot model.
E. faecalis V583 (VRE) is an example of a vancomycin resistant E. faecalis that was announced by the Centers for Disease Control (CDC) as one of the major bacterial threats today.

For the compound `CN[C@H](CC(C)C)C(=O)N[C@H]1C(=O)N[C@@H](CC(N)=O)C(=O)N[C@H]2C(=O)N[C@H]3C(=O)N[C@H](C(=O)N[C@H](C(=O)O)c4cc(O)cc(O)c4-c4cc3ccc4O)[C@H](O)c3ccc(c(Cl)c3)Oc3cc2cc(c3O[C@@H]2O[C@H](CO)[C@@H](O)[C@H](O)[C@H]2O[C@H]2C[C@](C)(N)[C@H](O)[C@H](C)O2)Oc2ccc(cc2Cl)[C@H]1O` [vancomycin], for the setting “24 hours incubation in 37 °C”, the “colony growth on agar plate from seeded culture aliquots” value is “growth was observed”. For the same compound, the “effect on growth and viability” value (EFLK1 2.5×10^7 phages/ml, vancomycin 15 μg/ml) was “somewhat affects its growth and viability”.
